Test results published in ChEMBL document CHEMBL1201862, “PubChem BioAssay data set” (2004).
Activity calls are given as the source filed them.

Experiments:
Ion channel NompC = Ion channel NompC (Danio rerio, UniProt Q7T1G6); test: Fluorescence counterscreen assay for TRPML3 agonists: dose response cell-based high-throughput screening assay to identify agonists of the transient receptor potential channel N1 (TRPN1). [Related pubchem assays: 1526, 1424, 1448 ]; type: functional
Mucolipin-3 = Mucolipin-3 (Homo sapiens, UniProt Q8TDD5); test: Dose response cell-based high-throughput screening assay for agonists of the transient receptor potential channel ML3 (TRPML3). [Related pubchem assays: 1526, 1424, 1448 ]; type: functional
Bcl-2-like protein 10 = Bcl-2-like protein 10 (Homo sapiens, UniProt Q9HD36); test: displacers of TR3 peptide from Bcl-B, primary screen, selectivity assay for Bfl-1 inhibitor project, biochemical, fluorescence polarization, FITC-TR3 peptide (AID 748);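 further: fluorescence polarization from a fluorescein-labelled TR3 peptide binding purified Bcl-B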
[1] = Luminescence Cell-Based Dose Confirmation HTS to Identify Inhibitors of Polyadenylation.; type: functional
[2] = molecular target: Neurotensin receptor type 1 (Homo sapiens, UniProt P30989); type: functional;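 further: Image-based confirmatory dose-response assay measuring agonist activity at NTR1; NTR1-expressing U2OS osteosarcoma cells imaged for beta-arrestin GFP spot formation; agonist potency where compounds increase beta-arrestin recruitment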
[3] = inhibitors of firefly luciferase expression or activity, dose response, H4 neuroglioma cells, luminescence (AID 1990); type: functional, cell-based
[4] = Luminescence-based counterscreen assay for KLF5 inhibitors: dose response cell-based high throughput screening assay to identify cytotoxic compounds using the IEC-6 intestinal epithelial cell line. [Related pubchem assays: 1700 (Primary screen.), 1834 (Confirmation screen.), 1858 (Summary AID.), 1905 (Counterscreen.)]; type: functional
[5] = molecular target: Protein-tyrosine kinase 2-beta (Homo sapiens, UniProt Q14289);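 further: potency of inhibitors of PYK2 kinase phosphorylation of poly-GT substrate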
[6] = inhibitors of SNCA 5'UTR-driven reporter translation, confirmation, H4 neuroglioma cells, luminescence (AID 1988); type: functional, cell-based
Hexokinase HKDC1 = molecular target: T1, Hexokinase HKDC1 (Homo sapiens, UniProt Q2TB90); test: HKDC1 hexokinase inhibitors, dose response, biochemical, W721R variant (AID 504729); type: functional
T1 sequence (Q2TB90 whole entry): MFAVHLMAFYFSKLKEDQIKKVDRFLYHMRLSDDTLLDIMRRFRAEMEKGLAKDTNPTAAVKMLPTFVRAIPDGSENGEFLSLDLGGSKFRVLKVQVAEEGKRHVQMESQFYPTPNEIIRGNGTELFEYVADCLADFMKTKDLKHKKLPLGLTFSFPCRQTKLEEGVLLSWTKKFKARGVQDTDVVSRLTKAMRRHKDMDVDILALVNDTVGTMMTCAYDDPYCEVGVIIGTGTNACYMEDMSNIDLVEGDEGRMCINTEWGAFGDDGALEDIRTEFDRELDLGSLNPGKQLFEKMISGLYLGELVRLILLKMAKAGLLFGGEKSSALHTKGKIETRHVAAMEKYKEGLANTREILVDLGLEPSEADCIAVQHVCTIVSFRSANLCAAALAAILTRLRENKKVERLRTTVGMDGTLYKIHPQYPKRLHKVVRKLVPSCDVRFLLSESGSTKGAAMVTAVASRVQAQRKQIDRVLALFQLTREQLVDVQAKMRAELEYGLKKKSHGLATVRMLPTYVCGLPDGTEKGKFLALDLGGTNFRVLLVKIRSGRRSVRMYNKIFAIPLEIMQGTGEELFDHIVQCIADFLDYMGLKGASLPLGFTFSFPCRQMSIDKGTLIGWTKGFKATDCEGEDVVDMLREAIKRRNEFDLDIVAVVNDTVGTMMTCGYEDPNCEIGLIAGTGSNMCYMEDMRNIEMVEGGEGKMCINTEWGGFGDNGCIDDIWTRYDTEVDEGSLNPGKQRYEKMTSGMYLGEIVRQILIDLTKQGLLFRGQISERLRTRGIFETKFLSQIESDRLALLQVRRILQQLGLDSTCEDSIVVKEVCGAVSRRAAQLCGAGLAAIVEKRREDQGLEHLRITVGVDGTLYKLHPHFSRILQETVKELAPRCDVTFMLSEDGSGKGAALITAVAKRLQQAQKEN

[7] = molecular target: T2, Hepatocyte nuclear factor 4-alpha (Homo sapiens, UniProt P41235); type: functional, cell-based;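 further: biochemical luminescence-based dose-response counterscreen measuring inhibition of HNF4 dimerization, run alongside a screen for blockers of ABHD5–perilipin-5 interaction; split luciferase complementation of HNF4 fusion proteins in cell lysate measuring dimerization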
T2 sequence (P41235 whole entry): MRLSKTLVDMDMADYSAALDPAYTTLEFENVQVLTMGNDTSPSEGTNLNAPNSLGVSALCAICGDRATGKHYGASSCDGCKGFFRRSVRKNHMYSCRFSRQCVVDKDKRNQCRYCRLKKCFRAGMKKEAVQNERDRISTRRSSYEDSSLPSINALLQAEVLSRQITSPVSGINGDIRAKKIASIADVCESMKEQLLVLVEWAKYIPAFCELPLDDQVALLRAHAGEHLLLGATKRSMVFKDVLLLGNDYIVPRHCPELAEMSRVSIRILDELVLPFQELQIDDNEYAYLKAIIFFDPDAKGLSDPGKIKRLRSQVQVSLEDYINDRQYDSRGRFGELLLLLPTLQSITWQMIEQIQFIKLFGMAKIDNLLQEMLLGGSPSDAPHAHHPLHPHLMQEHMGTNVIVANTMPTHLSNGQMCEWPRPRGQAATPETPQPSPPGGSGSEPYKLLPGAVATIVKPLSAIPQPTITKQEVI

[8] = molecular target: Glucose-6-phosphate 1-dehydrogenase (Homo sapiens, UniProt P11413); test: human G6PD enzyme inhibitors, dose response, selectivity assay for P. falciparum G6PD inhibitor project, biochemical, fluorescence (AID 504792); type: functional
[9] = molecular target: T3, Corticotropin-releasing factor receptor 2/Corticotropin-releasing factor-binding protein (Homo sapiens, UniProt P24387+Q13324); test: activators of CRF receptor 2 with binding protein – uHTS hits, confirmation (AID 602473); type: functional; settings: read-out: EC50_Mean
T3 sequence (Q13324 whole entry): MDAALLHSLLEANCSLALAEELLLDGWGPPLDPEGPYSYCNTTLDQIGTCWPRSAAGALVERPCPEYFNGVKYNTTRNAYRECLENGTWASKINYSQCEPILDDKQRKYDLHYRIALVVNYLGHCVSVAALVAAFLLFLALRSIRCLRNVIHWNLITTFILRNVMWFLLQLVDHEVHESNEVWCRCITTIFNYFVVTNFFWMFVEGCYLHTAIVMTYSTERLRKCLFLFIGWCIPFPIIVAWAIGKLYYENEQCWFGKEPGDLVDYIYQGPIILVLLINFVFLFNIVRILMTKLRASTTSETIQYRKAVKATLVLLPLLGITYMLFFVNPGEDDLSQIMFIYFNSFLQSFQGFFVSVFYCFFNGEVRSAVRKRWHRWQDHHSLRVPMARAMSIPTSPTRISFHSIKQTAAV
T3 sequence (P24387 whole entry): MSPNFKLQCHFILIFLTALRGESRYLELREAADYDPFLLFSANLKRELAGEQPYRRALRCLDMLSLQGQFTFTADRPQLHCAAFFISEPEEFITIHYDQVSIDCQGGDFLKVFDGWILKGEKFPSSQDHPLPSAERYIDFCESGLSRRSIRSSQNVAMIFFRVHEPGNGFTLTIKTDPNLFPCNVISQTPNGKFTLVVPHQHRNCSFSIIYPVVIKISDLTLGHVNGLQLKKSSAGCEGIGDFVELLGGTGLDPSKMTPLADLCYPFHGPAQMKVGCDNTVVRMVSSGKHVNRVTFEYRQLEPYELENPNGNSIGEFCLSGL

Cytochrome P450 2C9 = Cytochrome P450 2C9 (Homo sapiens, UniProt P11712); settings: Potency
[10] = inhibitors of Bluetongue virus cytopathic effect, confirmation, arbovirus, BSR cells (AID 1250); type: functional;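 further: protection from viral cytopathic effect measured as cell viability by ATP luminescence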
[11] = HEp-2 cell cytotoxicity, dose response, cytotoxicity control for RSV inhibitor project, HTS (AID 2410); type: functional; settings: human respiratory syncytial virus
[12] = molecular target: Luciferin 4-monooxygenase (Photinus pyralis, UniProt P08659); test: firefly luciferase enzyme inhibitors, dose response, biochemical, luminescence (AID 1891)
[13] = Luminescence Cell-Based Dose Confirmation HTS to Identify Inhibitors of Platelet Dense Granule Release. [Related pubchem assays: 1663 (Primary HTS), 1678 (Summary of Project)]; type: functional
[14] = molecular target: T4, Heat shock factor protein 1 (Mus musculus, UniProt P38532); test: inhibition of MG132-induced HSE-luciferase signal, confirmation, cell-based, NIH3T3, luminescence, dose retest (AID 2382); type: functional;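 further: NIH3T3 fibroblasts with HSF1-driven luciferase reporter stressed by proteasome inhibitor MG132; luminescence from HSF1-driven luciferase expression after 8 hours of MG132 stress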
T4 sequence (P38532 whole entry): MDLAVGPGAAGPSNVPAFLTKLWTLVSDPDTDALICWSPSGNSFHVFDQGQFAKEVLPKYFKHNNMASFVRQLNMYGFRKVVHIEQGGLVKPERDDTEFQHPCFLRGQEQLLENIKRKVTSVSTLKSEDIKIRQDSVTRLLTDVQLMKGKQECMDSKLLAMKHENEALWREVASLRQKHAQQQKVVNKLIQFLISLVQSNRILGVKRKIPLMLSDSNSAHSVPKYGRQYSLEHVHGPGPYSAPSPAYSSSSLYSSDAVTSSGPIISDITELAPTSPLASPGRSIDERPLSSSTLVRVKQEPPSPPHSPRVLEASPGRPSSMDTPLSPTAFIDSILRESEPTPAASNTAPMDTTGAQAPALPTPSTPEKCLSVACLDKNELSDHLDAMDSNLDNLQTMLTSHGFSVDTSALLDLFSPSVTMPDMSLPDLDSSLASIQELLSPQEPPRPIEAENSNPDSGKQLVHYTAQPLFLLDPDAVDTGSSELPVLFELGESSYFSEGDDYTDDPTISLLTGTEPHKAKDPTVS

[15] = Luminescence Cell-Based Dose Response HTS to Identify Inhibitors of 5'UTR Stem-Loop Driven Prion Protein mRNA Translation in H4 Neuroglioblastoma Cells. [Related pubchem assays: 1827 (Project Summary), 1813 (Primary HTS)]; type: functional
Streptococcus = test: Group A Streptococcus viability loss, dose response, counter-screen for streptokinase expression inhibitor project, luminescence, BacTiterGlo (AID 1915); type: functional, organism-based;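 further: potency for reduction of bacterial viability or growth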
Streptokinase A = molecular target: T5, Streptokinase A (Streptococcus pyogenes serotype M1, UniProt P10520); test: S. pyogenes streptokinase expression inhibitors, potency, dose response, plasminogen activation absorbance, OD405 (AID 1914); type: functional, Streptococcus pyogenes M1 GAS;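 further: secreted streptokinase activity via plasminogen activation per viability signal from cell pellet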
T5 sequence (P10520 whole entry): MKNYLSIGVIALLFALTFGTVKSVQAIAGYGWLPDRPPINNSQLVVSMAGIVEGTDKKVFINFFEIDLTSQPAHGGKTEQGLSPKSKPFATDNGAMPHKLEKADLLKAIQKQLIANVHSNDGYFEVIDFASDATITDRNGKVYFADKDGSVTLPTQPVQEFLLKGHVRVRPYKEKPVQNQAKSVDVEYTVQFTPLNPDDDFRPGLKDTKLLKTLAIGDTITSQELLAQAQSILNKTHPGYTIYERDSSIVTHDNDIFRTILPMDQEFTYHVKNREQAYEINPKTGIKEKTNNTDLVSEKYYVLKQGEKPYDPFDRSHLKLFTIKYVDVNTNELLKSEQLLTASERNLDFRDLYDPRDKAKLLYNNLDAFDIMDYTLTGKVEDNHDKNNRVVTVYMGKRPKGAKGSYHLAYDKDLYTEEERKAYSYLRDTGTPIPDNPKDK

[16] = system: Streptococcus sp. 'group A'; test: growth inhibition of control SK(-) GAS strain, dose response, counter-screen for streptokinase expression inhibitor project, luminescence, kanamycin, BacTiterGlo, confirmation (AID 1900); type: functional, organism-based
X-box-binding protein 1 = X-box-binding protein 1 (Homo sapiens, UniProt P17861); type: functional, Cricetulus griseus;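 further: confirmatory dose-response counter-screen serving a CHOP assay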
Chain of X-box-binding protein 1 (P17861 whole entry): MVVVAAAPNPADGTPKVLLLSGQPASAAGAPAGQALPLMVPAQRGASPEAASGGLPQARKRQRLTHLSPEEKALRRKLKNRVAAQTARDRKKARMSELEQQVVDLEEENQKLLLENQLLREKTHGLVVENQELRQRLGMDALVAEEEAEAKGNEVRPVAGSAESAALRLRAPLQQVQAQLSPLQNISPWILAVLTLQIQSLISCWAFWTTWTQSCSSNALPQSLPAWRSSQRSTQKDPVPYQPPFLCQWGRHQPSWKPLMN

Chain of Ion channel NompC (Q7T1G6 whole entry): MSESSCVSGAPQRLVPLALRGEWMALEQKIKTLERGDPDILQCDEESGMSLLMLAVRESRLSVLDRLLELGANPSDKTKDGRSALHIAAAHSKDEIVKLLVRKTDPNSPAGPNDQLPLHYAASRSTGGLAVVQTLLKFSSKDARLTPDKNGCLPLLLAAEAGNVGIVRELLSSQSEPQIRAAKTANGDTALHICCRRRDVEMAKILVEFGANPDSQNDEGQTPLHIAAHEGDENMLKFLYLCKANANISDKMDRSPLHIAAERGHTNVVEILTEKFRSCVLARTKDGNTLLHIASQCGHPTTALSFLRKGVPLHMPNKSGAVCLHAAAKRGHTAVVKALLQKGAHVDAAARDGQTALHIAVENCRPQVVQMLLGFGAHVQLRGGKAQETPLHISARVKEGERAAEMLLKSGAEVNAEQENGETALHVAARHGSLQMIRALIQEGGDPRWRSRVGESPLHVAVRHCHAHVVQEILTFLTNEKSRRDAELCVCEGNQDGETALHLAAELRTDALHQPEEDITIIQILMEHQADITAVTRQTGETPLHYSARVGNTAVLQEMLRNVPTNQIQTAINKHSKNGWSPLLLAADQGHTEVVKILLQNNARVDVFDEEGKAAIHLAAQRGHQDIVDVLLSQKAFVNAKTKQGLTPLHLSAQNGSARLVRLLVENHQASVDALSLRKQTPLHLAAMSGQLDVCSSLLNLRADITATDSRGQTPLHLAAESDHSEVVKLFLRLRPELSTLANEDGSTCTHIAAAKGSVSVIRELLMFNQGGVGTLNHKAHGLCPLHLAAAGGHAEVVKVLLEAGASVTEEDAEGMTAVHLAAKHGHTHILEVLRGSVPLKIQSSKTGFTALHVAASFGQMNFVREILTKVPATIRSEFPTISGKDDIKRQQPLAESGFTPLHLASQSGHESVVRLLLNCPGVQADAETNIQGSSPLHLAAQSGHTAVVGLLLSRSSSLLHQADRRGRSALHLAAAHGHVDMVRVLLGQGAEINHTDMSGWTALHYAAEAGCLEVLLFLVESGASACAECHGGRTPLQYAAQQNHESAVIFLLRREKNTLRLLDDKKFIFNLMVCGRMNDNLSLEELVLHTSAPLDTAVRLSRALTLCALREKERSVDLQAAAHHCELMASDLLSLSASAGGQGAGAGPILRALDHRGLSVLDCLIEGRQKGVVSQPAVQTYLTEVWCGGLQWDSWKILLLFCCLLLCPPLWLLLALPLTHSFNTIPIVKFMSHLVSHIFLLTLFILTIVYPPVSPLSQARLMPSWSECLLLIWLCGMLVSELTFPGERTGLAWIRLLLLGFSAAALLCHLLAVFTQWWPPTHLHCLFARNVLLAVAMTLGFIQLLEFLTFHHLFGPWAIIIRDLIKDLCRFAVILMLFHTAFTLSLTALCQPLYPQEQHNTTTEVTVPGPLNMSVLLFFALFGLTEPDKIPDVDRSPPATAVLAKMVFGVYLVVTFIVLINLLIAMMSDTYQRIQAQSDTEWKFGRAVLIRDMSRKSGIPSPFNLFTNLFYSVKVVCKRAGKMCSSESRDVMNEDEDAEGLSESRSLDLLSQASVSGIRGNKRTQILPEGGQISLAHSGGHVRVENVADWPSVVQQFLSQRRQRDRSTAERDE
Chain of Neurotensin receptor type 1 (P30989 whole entry): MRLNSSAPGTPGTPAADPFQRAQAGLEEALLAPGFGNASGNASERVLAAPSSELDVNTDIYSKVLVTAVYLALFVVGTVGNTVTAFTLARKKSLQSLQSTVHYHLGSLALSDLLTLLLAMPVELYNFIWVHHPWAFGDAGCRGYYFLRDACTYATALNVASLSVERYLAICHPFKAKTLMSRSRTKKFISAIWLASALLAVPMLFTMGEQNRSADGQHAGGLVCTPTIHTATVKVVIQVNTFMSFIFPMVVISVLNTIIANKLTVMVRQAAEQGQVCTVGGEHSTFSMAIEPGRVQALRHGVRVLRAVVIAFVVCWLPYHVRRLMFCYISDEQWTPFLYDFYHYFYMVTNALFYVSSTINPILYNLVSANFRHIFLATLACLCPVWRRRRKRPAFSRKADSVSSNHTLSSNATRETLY
Chain of Cytochrome P450 2C9 (P11712 whole entry): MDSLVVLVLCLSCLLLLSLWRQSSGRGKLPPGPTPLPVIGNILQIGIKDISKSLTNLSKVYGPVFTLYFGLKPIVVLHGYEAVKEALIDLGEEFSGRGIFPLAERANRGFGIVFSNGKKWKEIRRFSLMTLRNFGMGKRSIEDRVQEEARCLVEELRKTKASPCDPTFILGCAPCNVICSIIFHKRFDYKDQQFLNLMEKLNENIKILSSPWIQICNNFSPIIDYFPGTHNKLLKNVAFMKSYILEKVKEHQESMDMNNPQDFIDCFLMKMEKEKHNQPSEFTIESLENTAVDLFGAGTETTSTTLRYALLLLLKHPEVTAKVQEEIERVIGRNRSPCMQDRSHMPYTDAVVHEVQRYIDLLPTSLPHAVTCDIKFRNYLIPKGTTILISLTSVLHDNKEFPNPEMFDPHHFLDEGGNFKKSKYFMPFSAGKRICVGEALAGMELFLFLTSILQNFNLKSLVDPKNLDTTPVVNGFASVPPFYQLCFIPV
Chain of Mucolipin-3 (Q8TDD5 whole entry): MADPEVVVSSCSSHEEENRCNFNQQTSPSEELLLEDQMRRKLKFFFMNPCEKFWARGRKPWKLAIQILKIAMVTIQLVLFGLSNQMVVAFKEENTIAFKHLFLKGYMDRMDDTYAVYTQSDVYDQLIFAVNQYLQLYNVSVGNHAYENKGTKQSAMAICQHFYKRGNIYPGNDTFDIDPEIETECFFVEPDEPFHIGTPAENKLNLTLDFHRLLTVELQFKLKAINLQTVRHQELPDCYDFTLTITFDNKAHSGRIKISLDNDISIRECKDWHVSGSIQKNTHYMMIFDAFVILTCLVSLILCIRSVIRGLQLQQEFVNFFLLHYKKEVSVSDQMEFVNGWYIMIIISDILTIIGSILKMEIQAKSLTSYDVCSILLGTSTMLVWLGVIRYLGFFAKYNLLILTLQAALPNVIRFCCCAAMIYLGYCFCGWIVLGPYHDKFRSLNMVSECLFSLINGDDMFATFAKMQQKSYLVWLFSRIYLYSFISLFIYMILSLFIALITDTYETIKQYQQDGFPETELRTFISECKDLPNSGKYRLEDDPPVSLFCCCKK
Chain of Luciferin 4-monooxygenase (P08659 whole entry): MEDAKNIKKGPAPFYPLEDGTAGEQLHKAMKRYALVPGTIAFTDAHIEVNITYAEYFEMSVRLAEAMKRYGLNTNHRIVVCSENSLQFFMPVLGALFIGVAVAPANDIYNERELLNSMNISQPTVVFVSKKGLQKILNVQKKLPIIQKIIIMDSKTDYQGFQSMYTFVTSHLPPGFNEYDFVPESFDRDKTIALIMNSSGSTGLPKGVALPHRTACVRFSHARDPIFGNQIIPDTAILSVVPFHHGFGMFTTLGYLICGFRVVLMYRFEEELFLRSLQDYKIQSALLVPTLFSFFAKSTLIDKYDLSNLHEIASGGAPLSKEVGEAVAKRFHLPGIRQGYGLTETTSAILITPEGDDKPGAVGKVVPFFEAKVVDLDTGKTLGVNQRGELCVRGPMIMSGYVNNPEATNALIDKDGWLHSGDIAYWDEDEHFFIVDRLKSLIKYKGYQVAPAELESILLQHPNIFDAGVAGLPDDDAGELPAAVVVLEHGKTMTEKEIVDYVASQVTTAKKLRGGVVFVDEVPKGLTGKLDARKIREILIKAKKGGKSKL
Chain of Glucose-6-phosphate 1-dehydrogenase (P11413 whole entry): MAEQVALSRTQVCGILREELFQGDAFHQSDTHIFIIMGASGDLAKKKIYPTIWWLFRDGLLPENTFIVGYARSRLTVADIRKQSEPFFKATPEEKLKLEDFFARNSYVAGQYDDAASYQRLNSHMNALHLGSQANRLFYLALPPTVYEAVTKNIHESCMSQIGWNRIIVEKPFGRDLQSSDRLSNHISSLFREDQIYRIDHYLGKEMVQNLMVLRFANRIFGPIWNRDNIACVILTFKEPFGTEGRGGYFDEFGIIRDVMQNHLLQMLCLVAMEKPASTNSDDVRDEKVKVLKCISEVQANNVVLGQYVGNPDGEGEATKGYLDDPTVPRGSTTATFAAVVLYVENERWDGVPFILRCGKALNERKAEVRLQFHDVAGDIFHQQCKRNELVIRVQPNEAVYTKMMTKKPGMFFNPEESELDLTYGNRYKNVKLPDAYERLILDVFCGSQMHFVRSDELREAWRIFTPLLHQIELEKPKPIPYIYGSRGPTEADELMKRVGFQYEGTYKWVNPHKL
Chain of Bcl-2-like protein 10 (Q9HD36 whole entry): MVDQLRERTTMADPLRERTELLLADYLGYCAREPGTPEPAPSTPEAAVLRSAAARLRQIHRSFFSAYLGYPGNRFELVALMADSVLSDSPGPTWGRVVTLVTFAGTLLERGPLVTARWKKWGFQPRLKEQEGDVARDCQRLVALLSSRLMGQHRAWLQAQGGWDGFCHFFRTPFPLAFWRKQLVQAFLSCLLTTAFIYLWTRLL

COc1ccc(N2C(=O)C(F)(F)C2c2ccccc2F)cc1 (centres undefined)
EC50 (Ion channel NompC): > 29.9 µM (not active) | EC50 (Mucolipin-3): 3.96 µM (active)

O=c1c([N+](=O)[O-])cc(C(F)(F)F)cn1Cc1cccc(Cl)c1
IC50 (Bcl-2-like protein 10): > 100 µM (inactive)

Cc1cc(Cl)ccc1C(=O)C1CCCN(C(=O)c2snnc2C)C1 (centres undefined)
EC50 [1]: > 120 µM (not active)

O=C(c1ccc(F)cc1)N1CCN2C(=O)c3ccccc3C12c1ccccc1 (centres undefined)
IC50 (cells): 31.2 µM (active)

COc1ccc(-n2ncc3c(N4CCN(Cc5ccccc5)CC4)ncnc32)cc1
EC50 [2]: 35.9 µM (inactive)

COc1cc(/N=C/c2c(O)[nH]c3ccccc23)cc(OC)c1OC
EC50 [3]: < 0.1 µM (active) | IC50 [4]: > 39.8 µM (not active) | IC50 [5]: 3.15 µM (active) | EC50 [6]: 0.108 µM (active)

Cc1ccc(SC2=C(Sc3ccc(C)cc3)C(=O)c3ccccc3C2=O)cc1
IC50 (Hexokinase HKDC1): 15.9 µM (active) | IC50 [7]: 1.38 µM (active) | IC50 [8]: > 80 µM (inactive)

COc1ccccc1N(CC(=O)N1CCCCC1)S(=O)(=O)c1ccccc1
EC50 (Ion channel NompC): 12.4 µM (not active) | EC50 [9]: 8.61 µM (active) | EC50 (Mucolipin-3): 0.59 µM (active)

CC(C)C[C@@H](CC(=O)N[C@@H](CCC(=O)O)CC(=O)O)NC(=O)[C@@H]1CCCC[C@H]1NC(=O)C[C@@H](NC(=O)C[C@H](CO)NC(=O)[C@@H]1CCCC[C@H]1N)C(C)C
AC50 (Cytochrome P450 2C9): 20 µM (inconclusive)

CC(=O)OCC1OC(C#Cc2ccc(C(C)(C)C)cc2)C=CC1OC(C)=O (centres undefined)
AC50 (Cytochrome P450 2C9): 6.31 µM (inconclusive)

Cc1cccc(C)c1Nc1nc2ccccc2o1
IC50 [10]: 26.7 µM (active)

CCCCC1=NN2C(=N)/C(=C/c3c[nH]c4ccccc34)C(=O)N=C2S1
IC50 [10]: 61.7 µM (active)

COC(=O)COc1ccc(/C=N/NC(=O)CN(c2ccccc2OC)S(=O)(=O)c2ccccc2)cc1
EC50 [2]: 6.65 µM (active)

Cc1cc(Cl)cc(C)c1OCCn1ccnc1
CC50 [11]: 33.5 µM (active) | IC50 (cells): 32.9 µM (active)

COc1ccc(OC)c(N/C=C/C(=O)c2ccccc2)c1
EC50 [3]: 6.32 µM (inconclusive) | EC50 [12]: 0.276 µM (active) | IC50 [4]: > 39.8 µM (not active) | EC50 [13]: 0.982 µM (active) | EC50 [14]: 0.476 µM (inconclusive) | EC50 [6]: 3.8 µM (active) | EC50 [15]: 1.35 µM (active)

COC(=O)C(Nc1ccccc1Cl)(c1cc(C)c(O)c(C)c1)C(F)(F)F (centres undefined)
EC50 (Streptococcus): 9.48 µM (active) | EC50 (Streptokinase A): 17.2 µM (active) | EC50 [16]: 1.58 µM (active) | Absolute IC50 (XBP1) (X-box-binding protein 1): < 10 µM
